Patent publication US7256176B2, “Methods of modulating β cell function” (Joslin Diabetes Center, Inc., priority 2002, dated 2007)
Positions of bridges follow the written chain, without caps; N, C: chain ends.

How the values were obtained:
human MCH-2R = human MCH-2R (Homo sapiens, UniProt Q969V1); conditions: cited from earlier work
[1] = tested on: islets isolated from C57B1/6J mice; assay: MCH stimulation of insulin secretion from overnight cultured isolated islets; assay type: cell-based, mouse
[2] = tested on: islets isolated from MCH over expressing mice; assay: MCH treatment of islets from MCH over expressing mice (insulin secretion); assay type: cell-based, mouse; conditions: n=2, control 2.8±0.36
MAP kinase = assay: Effect of MCH on MAP kinase activity in islets or clonal β-cells; assay type: cell-based, mouse; conditions: islets or clonal β-cells treated with 1 μM MCH
Excerpt: To begin to examine the mechanism of action of MCH in the islets the effect of the peptide on MAP kinase activity was investigated.

rat adipocytes = conditions: cited from earlier work
feeding = conditions: administered ICV; cited from earlier work

Chain of human MCH-2R (Q969V1 whole entry): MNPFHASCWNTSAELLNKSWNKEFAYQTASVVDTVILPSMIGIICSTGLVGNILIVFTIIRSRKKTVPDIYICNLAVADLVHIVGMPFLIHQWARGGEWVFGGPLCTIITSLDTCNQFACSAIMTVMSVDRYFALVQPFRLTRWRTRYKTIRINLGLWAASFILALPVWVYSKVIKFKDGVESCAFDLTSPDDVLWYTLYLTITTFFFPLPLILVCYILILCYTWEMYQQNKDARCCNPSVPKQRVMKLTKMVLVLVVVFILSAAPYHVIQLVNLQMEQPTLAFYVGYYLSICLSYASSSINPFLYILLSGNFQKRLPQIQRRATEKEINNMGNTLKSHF

Row | Substance | activation of receptor compared with full-length human MCH (human MCH-2R) | insulin secretion ([1]; 100 nM MCH, 30 min incubation, 11.1 mM glucose, n=3, p<0.02 vs control 0.86±0.22) | insulin secretion, dependence on concentration and time ([1]; overnight cultured islets) | insulin secretion [2] | effect on MAP kinase levels (MAP kinase) | leptin secretion (rat adipocytes) | feeding (feeding)
1 | Arg-cyclo(S-S)(Cys-Met-Leu-Gly-Arg-Val-Tyr-Arg-Pro-Cys) | about as effectively as full-length human MCH | – | – | – | – | – | –
2 | NH2-Asp-Phe-Asp-Met-Leu-Arg-Cys-Met-Leu-Gly-Arg-Val-Tyr-Arg-Pro-Cys-Trp-Gln-Val-COOH (H-DFDMLRCMLGRVYRPCWQV-OH; disulfide 7-16 (inferred); ends not checked) [MCH, cyclic 19 amino-acid peptide that is an important regulator of feeding behavior] | – | 2.1±0.11 % of insulin content | concentration- and time-dependent insulin secretion | 11.4±0.49 pg/μg protein | No consistent effect | stimulate leptin secretion | acute increase in feeding
